Results taken from US9302999B2, “Substituted triazoles as herbicides” (E. I. DU PONT DE NEMOURS AND COMPANY, priority 2012, dated 2016).

What was measured:
Format in all cases: in vivo
[1] = tested on: field violet (Viola arvensis); assay: Test D pre-/postemergence: field violet
From the text: (§1) Seeds of plant species selected from bluegrass (annual bluegrass, Poa annua), blackgrass (Alopecurus myosuroides), canarygrass (Phalaris minor), chickweed (common chickweed, Stellaria media), galium (catchweed bedstraw, Galium aparine), bromegrass, downy (downy bromegrass, Bromus tectorum), field poppy (Papaver rhoeas), field violet (Viola arvensis), foxtail, green (green foxtail, Setaria viridis), deadnettle (henbit deadnettle, Lamium amplexicaule), ryegrass, Italian (Italian ryegrass, Lolium multiflorum), kochia (Kochia scoparia), lambsquarters (Chenopodium album), oilseed rape (Brassica napus), pigweed (Amaranthus retroflexus), Russian thistle (Salsola iberica), chamomile (scentless chamomile, Matricaria inodora), speedwell (bird's-eye speedwell, Veronica persica), barley, spring (spring barley, Hordeum vulgare), wheat, spring (spring wheat, Triticum aestivum), buckwheat, wild (wild buckwheat, Polygonum convolvulus), mustard, wild (wild mustard, Sinapis arvensis), oat, wild (wild oat, Avena fatua), radish, wild (wild radish, Raphanus raphanistrum), windgrass (Apera spica-venti), barley, winter (winter barley, Hordeum vulgare), and wheat, winter (winter wheat, Triticum aestivum) were planted into a silt loam soil and treated preemergence with test chemicals formulated in a non-phytotoxic solvent mixture which included a surfactant. At the same time, these same crop and weed species were planted in pots containing the planting medium comprising spaghnum peat moss, vermiculite, wetting agent and starter nutrients and treated with postemergence applications of the test chemicals formulated in the same manner. Plants ranged in height from 2 to 18 cm (1- to 4-leaf stage).
(§2) Treated plants and controls were maintained in a controlled growth environment for 14 to 21 days after which time all species were compared to controls and visually evaluated. Plant response ratings, summarized in Table D, are based on a scale of 0 to 100 where 0 is no effect and 100 is complete control. A dash (-) response means no test result.

[2] = tested on: deadnettle (henbit deadnettle, Lamium amplexicaule); assay: Test D pre-/postemergence: deadnettle
From the text: as §1, §2

[3] = tested on: chamomile (scentless chamomile, Matricaria inodora); assay: Test D pre-/postemergence: chamomile
From the text: as §1, §2

[4] = tested on: windgrass (Apera spica-venti); assay: Test D pre-/postemergence: windgrass
From the text: as §1, §2

[5] = Postemergence, 31 g ai/ha, scale 0 to 100 (0 no effect, 100 complete control)
[6] = Postemergence, 62 g ai/ha, scale 0 to 100 (0 no effect, 100 complete control)
[7] = Postemergence, 125 g ai/ha, scale 0 to 100, 0 no effect, 100 complete control
[8] = Postemergence, 250 g ai/ha, scale 0 to 100 (0 no effect, 100 complete control)
[9] = Preemergence, 31 g ai/ha, scale 0 to 100, 0 no effect, 100 complete control
[10] = Preemergence, 62 g ai/ha, scale 0 to 100
[11] = Preemergence, 125 g ai/ha, scale 0 to 100
[12] = Preemergence, 250 g ai/ha, scale 0 to 100
[13] = Postemergence, 16 g ai/ha, scale 0 to 100
[14] = Preemergence, 16 g ai/ha, scale 0 to 100, 0 no effect, 100 complete control

Structure (SMILES): FC(F)(F)COc1nn(-c2ccc(C(F)(F)F)cc2)nc1Cc1ccnc(C(F)(F)F)c1 [Compound 14, 4-[[5-(2,2,2-trifluoroethoxy)-2-[4-(trifluoromethyl)phenyl]-2H-1,2,3-triazol-4-yl]methyl]-2-(trifluoromethyl)pyridine]
- Plant response rating: Field Violet [1, 5]: 100
- Plant response rating: Field Violet [1, 6]: 100
- Plant response rating: Field Violet [1, 7]: 100
- Plant response rating: Field Violet [1, 8]: 100
- Plant response rating, Field Violet [1, 9]: 75
- Plant response rating, Field Violet [1, 10]: 90
- Plant response rating, Field Violet [1, 11]: 95
- Plant response rating, Field Violet [1, 12]: 95
- Plant response rating: Deadnettle [2, 5]: 25
- Plant response rating: Deadnettle [2, 6]: 40
- Plant response rating: Deadnettle [2, 7]: 100
- Plant response rating: Deadnettle [2, 8]: 100
- Plant response rating, Deadnettle [2, 9]: 60
- Plant response rating, Deadnettle [2, 10]: 70
- Plant response rating, Deadnettle [2, 11]: 100
- Plant response rating, Deadnettle [2, 12]: 100
- Plant response rating: Chamomile [3, 5]: 20
- Plant response rating: Chamomile [3, 6]: 60
- Plant response rating: Chamomile [3, 7]: 100
- Plant response rating: Chamomile [3, 8]: 100
- Plant response rating: Windgrass [4, 5]: 30
- Plant response rating: Windgrass [4, 6]: 40
- Plant response rating: Windgrass [4, 7]: 75
- Plant response rating: Windgrass [4, 8]: 100
- Plant response rating, Windgrass [4, 9]: 10
- Plant response rating, Windgrass [4, 10]: 20
- Plant response rating, Windgrass [4, 11]: 40
- Plant response rating, Windgrass [4, 12]: 85

Structure (SMILES): COc1nn(-c2ccc(C(F)(F)F)cc2)nc1Cc1ccnc(C(F)(F)F)c1 [Compound 15, 4-[[5-methoxy-2-[4-(trifluoromethyl)phenyl]-2H-1,2,3-triazol-4-yl]methyl]-2-(trifluoromethyl)pyridine]
- Plant response rating: Field Violet [1, 5]: 100
- Plant response rating: Field Violet [1, 6]: 100
- Plant response rating: Field Violet [1, 7]: 100
- Plant response rating: Field Violet [1, 8]: 100
- Plant response rating, Field Violet [1, 13]: 80
- Plant response rating: Deadnettle [2, 5]: 75
- Plant response rating: Deadnettle [2, 6]: 98
- Plant response rating: Deadnettle [2, 7]: 100
- Plant response rating: Deadnettle [2, 8]: 100
- Plant response rating, Deadnettle [2, 13]: 50
- Plant response rating, Deadnettle [2, 9]: 10
- Plant response rating, Deadnettle [2, 10]: 40
- Plant response rating, Deadnettle [2, 11]: 95
- Plant response rating, Deadnettle [2, 12]: 100
- Plant response rating: Chamomile [3, 5]: 0
- Plant response rating: Chamomile [3, 6]: 0
- Plant response rating: Chamomile [3, 7]: 25
- Plant response rating: Chamomile [3, 8]: 100
- Plant response rating, Chamomile [3, 13]: 0
- Plant response rating: Windgrass [4, 5]: 10
- Plant response rating: Windgrass [4, 6]: 25
- Plant response rating: Windgrass [4, 7]: 75
- Plant response rating: Windgrass [4, 8]: 100
- Plant response rating, Windgrass [4, 13]: 5
- Plant response rating, Windgrass [4, 9]: 30
- Plant response rating, Windgrass [4, 10]: 40
- Plant response rating, Windgrass [4, 11]: 100
- Plant response rating, Windgrass [4, 12]: 100

Structure (SMILES): Cc1nn(-c2ccc(C(F)(F)F)cn2)nc1Oc1ccnc(C(F)(F)F)c1 [Compound 23]
- Plant response rating: Field Violet [1, 5]: 40
- Plant response rating: Field Violet [1, 6]: 50
- Plant response rating: Field Violet [1, 7]: 70
- Plant response rating: Field Violet [1, 8]: 80
- Plant response rating, Field Violet [1, 13]: 20
- Plant response rating: Deadnettle [2, 5]: 30
- Plant response rating: Deadnettle [2, 6]: 50
- Plant response rating: Deadnettle [2, 7]: 60
- Plant response rating: Deadnettle [2, 8]: 90
- Plant response rating, Deadnettle [2, 13]: 20
- Plant response rating: Chamomile [3, 5]: 0
- Plant response rating: Chamomile [3, 6]: 0
- Plant response rating: Chamomile [3, 7]: 0
- Plant response rating: Chamomile [3, 8]: 5
- Plant response rating, Chamomile [3, 13]: 0
- Plant response rating: Windgrass [4, 5]: 5
- Plant response rating: Windgrass [4, 6]: 10
- Plant response rating: Windgrass [4, 7]: 20
- Plant response rating: Windgrass [4, 8]: 30
- Plant response rating, Windgrass [4, 13]: 0

Structure (SMILES): Cc1nn(-c2ccc(C(F)(F)F)cn2)nc1Cc1cccc(C(F)(F)F)c1 [Compound 106]
- Plant response rating: Field Violet [1, 5]: 70
- Plant response rating: Field Violet [1, 6]: 70
- Plant response rating: Field Violet [1, 7]: 85
- Plant response rating: Field Violet [1, 8]: 100
- Plant response rating, Field Violet [1, 13]: 70
- Plant response rating: Deadnettle [2, 5]: 30
- Plant response rating: Deadnettle [2, 6]: 40
- Plant response rating: Deadnettle [2, 7]: 60
- Plant response rating: Deadnettle [2, 8]: 80
- Plant response rating, Deadnettle [2, 13]: 20
- Plant response rating, Deadnettle [2, 9]: 0
- Plant response rating, Deadnettle [2, 10]: 0
- Plant response rating, Deadnettle [2, 11]: 0
- Plant response rating, Deadnettle [2, 12]: 0
- Plant response rating: Chamomile [3, 5]: 0
- Plant response rating: Chamomile [3, 6]: 0
- Plant response rating: Chamomile [3, 7]: 0
- Plant response rating: Chamomile [3, 8]: 25
- Plant response rating, Chamomile [3, 13]: 0
- Plant response rating: Windgrass [4, 5]: 10
- Plant response rating: Windgrass [4, 6]: 25
- Plant response rating: Windgrass [4, 7]: 35
- Plant response rating: Windgrass [4, 8]: 50
- Plant response rating, Windgrass [4, 13]: 5
- Plant response rating, Windgrass [4, 9]: 5
- Plant response rating, Windgrass [4, 10]: 5
- Plant response rating, Windgrass [4, 11]: 25
- Plant response rating, Windgrass [4, 12]: 80

Structure (SMILES): Cc1nn(-c2ccc(C(F)(F)F)cc2)nc1Oc1ccnc(C(F)(F)F)c1 [Compound 120]
- Plant response rating: Field Violet [1, 5]: 70
- Plant response rating: Field Violet [1, 6]: 100
- Plant response rating: Field Violet [1, 7]: 100
- Plant response rating: Field Violet [1, 8]: 100
- Plant response rating, Field Violet [1, 13]: 70
- Plant response rating, Field Violet [1, 14]: 75
- Plant response rating, Field Violet [1, 9]: 90
- Plant response rating, Field Violet [1, 10]: 95
- Plant response rating, Field Violet [1, 11]: 100
- Plant response rating, Field Violet [1, 12]: 100
- Plant response rating: Deadnettle [2, 5]: 90
- Plant response rating: Deadnettle [2, 6]: 90
- Plant response rating: Deadnettle [2, 7]: 100
- Plant response rating: Deadnettle [2, 8]: 100
- Plant response rating, Deadnettle [2, 13]: 30
- Plant response rating, Deadnettle [2, 14]: 0
- Plant response rating, Deadnettle [2, 9]: 85
- Plant response rating, Deadnettle [2, 10]: 100
- Plant response rating, Deadnettle [2, 11]: 100
- Plant response rating, Deadnettle [2, 12]: 100
- Plant response rating: Chamomile [3, 5]: 25
- Plant response rating: Chamomile [3, 6]: 40
- Plant response rating: Chamomile [3, 7]: 80
- Plant response rating: Chamomile [3, 8]: 90
- Plant response rating, Chamomile [3, 13]: 10
- Plant response rating, Chamomile [3, 14]: 0
- Plant response rating, Chamomile [3, 9]: 10
- Plant response rating, Chamomile [3, 10]: 20
- Plant response rating, Chamomile [3, 11]: 100
- Plant response rating, Chamomile [3, 12]: 100
- Plant response rating: Windgrass [4, 5]: 15
- Plant response rating: Windgrass [4, 6]: 95
- Plant response rating: Windgrass [4, 7]: 100
- Plant response rating: Windgrass [4, 8]: 100
- Plant response rating, Windgrass [4, 13]: 5
- Plant response rating, Windgrass [4, 14]: 0
- Plant response rating, Windgrass [4, 9]: 80
- Plant response rating, Windgrass [4, 10]: 100
- Plant response rating, Windgrass [4, 11]: 100
- Plant response rating, Windgrass [4, 12]: 100

Structure (SMILES): COc1nn(-c2ccc(C(F)(F)F)cc2)nc1Cc1ccnc(C(F)F)c1 [Compound 138]
- Plant response rating: Field Violet [1, 5]: 70
- Plant response rating: Field Violet [1, 6]: 75
- Plant response rating: Field Violet [1, 7]: 85
- Plant response rating: Field Violet [1, 8]: 90
- Plant response rating, Field Violet [1, 13]: 60
- Plant response rating: Deadnettle [2, 5]: 50
- Plant response rating: Deadnettle [2, 6]: 75
- Plant response rating: Deadnettle [2, 7]: 80
- Plant response rating: Deadnettle [2, 8]: 95
- Plant response rating, Deadnettle [2, 13]: 50
- Plant response rating: Chamomile [3, 5]: 10
- Plant response rating: Chamomile [3, 6]: 30
- Plant response rating: Chamomile [3, 7]: 60
- Plant response rating: Chamomile [3, 8]: 80
- Plant response rating, Chamomile [3, 13]: 0
- Plant response rating: Windgrass [4, 6]: 50
- Plant response rating: Windgrass [4, 7]: 60
- Plant response rating: Windgrass [4, 8]: 90
- Plant response rating, Windgrass [4, 13]: 15
- Plant response rating, Windgrass ([4]; Postemergence, 31 g ai/ha, scale 0 to 100): 30
